Values quoted from earlier work, collected in patent US20030124640A1, “Predictive assay for the outcome of IVF” (Royal Free Hospital School of Medicine, priority 1996, published 2003).
Where two headings read alike, the source gives them in different places.

What was measured:
11β-HSD2 = biological target: T1, 11β-HSD2 (Homo sapiens, UniProt P80365); details: renal isoform 11β-HSD2, NAD+ dependent 11β-dehydrogenase
T1 sequence (P80365 1-405): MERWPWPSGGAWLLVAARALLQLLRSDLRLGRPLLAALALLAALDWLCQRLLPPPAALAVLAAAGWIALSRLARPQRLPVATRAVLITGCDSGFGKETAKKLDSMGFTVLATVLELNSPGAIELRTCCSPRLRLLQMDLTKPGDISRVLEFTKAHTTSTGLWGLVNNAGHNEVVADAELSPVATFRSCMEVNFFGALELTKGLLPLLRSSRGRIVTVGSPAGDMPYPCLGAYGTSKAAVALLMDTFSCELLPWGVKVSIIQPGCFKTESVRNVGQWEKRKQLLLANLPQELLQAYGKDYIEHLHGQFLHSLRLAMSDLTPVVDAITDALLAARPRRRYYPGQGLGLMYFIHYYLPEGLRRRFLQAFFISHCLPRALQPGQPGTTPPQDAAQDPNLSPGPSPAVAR

ovarian 11β-HSD = details: for Inhibition of 11β-HSD activity: cultured human granulosa-lutein cells; for Acute effect on ovarian 11β-HSD activity: in vitro
renal 11β-HSD = biological target: T2, renal 11β-HSD (Homo sapiens, UniProt P80365)
T2 sequence (P80365 1-405): T1 sequence (P80365 1-405)

[1] = hepatic isoform 11βHSD1, NADP(H) cofactor, read-out: Km for 11β-dehydrogenase activity

Km (11βHSD1; [1]) [µM] | Km (11β-HSD2) [µM] | SMILES | Inhibition of 11β-HSD activity (ovarian 11β-HSD) | Acute effect on ovarian 11β-HSD activity (ovarian 11β-HSD) | Acute effect on renal 11β-HSD activity (renal 11β-HSD) | other results
~2 | 0.026 | C[C@]12C[C@H](O)[C@H]3[C@@H](CCC4=CC(=O)CC[C@@]43C)[C@@H]1CC[C@@H]2C(=O)CO [corticosterone] | – | – | – | –
17 | 0.04 | C[C@]12CCC(=O)C=C1CC[C@@H]1[C@@H]2[C@@H](O)C[C@@]2(C)[C@H]1CC[C@]2(O)C(=O)CO [cortisol] | – | – | – | –

Second part, the compound before the results:

SMILES | Km (11βHSD1; [1]) [µM] | Km (11β-HSD2) [µM] | Inhibition of 11β-HSD activity (ovarian 11β-HSD) | Acute effect on ovarian 11β-HSD activity (ovarian 11β-HSD) | Acute effect on renal 11β-HSD activity (renal 11β-HSD) | other results
C[C@]12CC[C@@H]3c4ccc(O)cc4CC[C@H]3[C@@H]1CC[C@@H]2O [oestradiol] | – | – | – | – | – | Effect on hepatic 11β-HSD activity in vivo (hepatic 11β-HSD): inhibits
C[C@]12CCC(=O)C=C1CC[C@@H]1[C@@H]2C(=O)C[C@@]2(C)[C@H]1CC[C@]2(O)C(=O)CO [cortisone] | – | – | – | – | – | Km (11βHSD1; hepatic isoform 11βHSD1, cortisone to cortisol, read-out: Km for cortisone (11-ketosteroid reductase activity)): 0.14 to 0.272 µM
CC(=O)[C@H]1CC[C@H]2[C@@H]3CCC4=CC(=O)CC[C@]4(C)[C@H]3CC[C@]12C [progesterone] | – | – | can inhibit | inhibit | inhibit | –
CC(=O)[C@H]1CC[C@H]2[C@@H]3CC=C4C[C@@H](O)CC[C@]4(C)[C@H]3CC[C@]12C [pregnenolone] | – | – | can inhibit | inhibit | inhibit | –
